Results published in patent US7893068B2, “Physiologically active substances” (Mercian Corporation, priority 2002, dated 2011).

How the values were obtained:
[1] = Stability in an aqueous solution (HPLC residual ratio); conditions: for Peak area (mAU × sec) after 24 hours / The residual ratios (%): Britton-Robinson's buffer pH 7, 25° C., 24 hours; for Peak area (mAU × sec) initial: Britton-Robinson's buffer pH 7, before incubation
Protocol: The compounds of the formula (I) were dissolved in DMSO in concentrations of 10 to 20 mM, and these were diluted about 500 folds with Britton-Robinson's buffer solution of pH 7. Each of the solutions as sample solutions was incubated at 25° C. for 24 hours.
The sample solutions were analyzed by high performance liquid chromatography before and after incubation, and the residual ratios of the tested substances in the sample solutions after incubation were determined from the peak areas of the obtained chromatograms.

[2] = tested on: WiDr human colon cancer cells; assay: Growth inhibitory activities on WiDr human colon cancer cells (MTT); assay type: cell-based; conditions: 72 h, three days incubation
Protocol: WiDr human colon cancer cells cultured in DULBECCO-modified eagle medium (DMEM; manufactured by SIGMA Co., Ltd.) containing 10% fetal calf serum, penicillin (100 unit/mL) and streptomycin (100 μg/mL) were dispensed in 96-well plates by 2×10^3 cells/well. After culturing overnight in a CO2 incubator, 20 μL of the above-mentioned incubation solution containing the test compound diluted with 3-fold succession was added, followed by incubation. After three days, 50 μL of 3.3 mg/mL MTT solution was added, followed by culturing for further one hour. Then, formazan formed by the reduction by the action of living cells was extracted with 100 μL of DMSO, the absorbance (A540/A660) was determined and was set as the index of the number of living cells.
The concentrations of the compounds of the formula (I) at which the growth of WiDr human colon cancer cells are inhibited 50% were determined.

VEGF promoter = assay: VEGF transcription-suppressing activity (VEGF promoter-PLAP reporter, U251/1-8 cells, hypoxia); assay type: cell-based; conditions: Homo sapiens, U-251, 18 h, read-out: VEGF transcription-suppressing activities (IC50: nM)
Description: In order to prepare reporter system reflecting transcription from VEGF promoter, VEGF promoter sequence was cloned, and inserted in secretory alkaline phosphatase (PLAP) vector to construct reporter vector.
In order to obtain the promoter region of human VEGF, VEGF genomic DNA was cloned from phage library. PCR primers having the sequences described in Sequence Numbers 1 and 2 were designed based on VEGF cDNA (GenBank accession number: X62568) and a fragment having about 340 bp was obtained by carrying out PCR. Human genomic phage library (Human genomic library, Clontech Co.) was screened using this as a probe to obtain VEGF genomic DNA. The DNA was digested by EcoRI, and the resultant fragments were inserted in the EcoRI site of pUC18. Finally, pUC18-VEGFA containing about 5.4 kb of VEGF 5′ flanking region was obtained. The pUC18-VEGFA was digested by KpnI/NheI, VEGF promoter region of about 2.3 kb obtained was inserted in the multi cloning site KpnI/NheI of secretory alkaline phosphatase (PLAP) vector (Goto et al, Mol. Pharmacol., 49, 860-873, 1996), and thus, VEGF-PLAP vector was constructed.
The above-mentioned VEGF-PLAP vector was transfected in the U251 cell cultured in the DULBECCO-modified eagle medium (DMEM; manufactured by SIGMA Co., Ltd.) containing 10% fetal calf serum, and the cells were cultured in the presence of 1 mg/mL G418 (Merck Co.) to establish G418 resistant stable clone (U251/1-8 cell).
It was confirmed that U251/1-8 cell secreted PLAP under hypoxic condition (2% O2 incubator) in the same manner as in the report (Cell. Mol. Biol. Res. 40, 35-39, 1994) and was a reporter system reflecting the transcription from VEGF promoter. The screening of the compound suppressing VEGF production which was induced by hypoxic stimulation was carried out below using the clone.
In order to remove the influence of alkaline phosphates in serum, U251/1-8 cells were rinsed twice with the adequate amount of PBS (Phosphate buffered saline), diluted in the DMEM medium containing 10% of serum in which alkaline phosphates was inactivated by the treatment of 65° C. for 20 min., and dispensed in 96-well plates by 4×10^4 cells/180 μL.
After culturing at 37° C. overnight in a CO2 incubator (5% CO2), 20 μL of the above-mentioned incubation solution containing the test compound diluted with 3-fold succession was added, and then they were incubated in a hypoxic (2% […]) incubator for 18 hours. With respect to the PLAP activity in the culture supernatants, 10 μL of the supernatants was added to 50 μL of 0.28 M Na2CO3—NaHCO3 buffer solution (pH 10.0, 8.0 mM MgSO4), and finally 50 μL of alkaline phosphatase substrate (LUMISTEIN, Genomescience Co.) was added. After reacting for one hour, the alkaline phosphatase activity of the PLAP was measured by detecting the chemical luminescence by a micro plate reader (Perkin-Elmer Co.). The PLAP activity under normoxia was set as 0%, the PLAP activity of cell which was treated under hypoxia was set as 100%, and the concentration suppressing the PLAP activity by 50% was set as the IC50 value of PLAP. The IC50 values of 11107D derivatives shown in Examples were measured, and the IC50 values of representative 11107D derivatives are shown in Table 1.

[3] = tested on: WiDr human colon cancer cells; assay: Solid tumor growth inhibitory activities, WiDr human colon tumor model in nude mice; assay type: in vivo; conditions: Mus musculus, iv, 360 h, read-out: Growth inhibitory activities in the WiDr human solid tumor model (T/C %)
Description: (§1) In order to study solid tumor growth inhibitory activities of the compounds of the formula (I) in vivo, WiDr human colon cancer cells were implanted subcutaneously into the flanks of nude mice. […]. The animals were grouped so that the average of the volumes of the respective groups became uniform, when it reached about 100 mm^3. Control group was made up of 10 mice and 11107D-administering groups were made up of 5 mice. The derivatives were administered for the administering groups for 5 consecutive days by intravenous injection so as to be any of 0.625 mg, 1.25 mg, 2.5 mg, 5 mg and 10 mg/kg/day, and a vehicle was administered to the control group. The tumor volumes on Day 15 were measured, and relative tumor volume ratios (T/C %) were determined setting the tumor volume of the control group as 100%. The body weights on Day 1, Day 5, Day 8, Day 12 and Day 15 (or 16) were measured, and relative body weight variations were determined setting the body weight on Day 1 as 100%. The relative body weight ratios on the day where the body weight reached the minimum were defined as the minimum relative weight ratios and are shown in Table 3.

[4] = Body weight loss (acute toxicity) in the WiDr tumor model; assay type: in vivo, nude mice; conditions: intravenous 5 consecutive days, body weight relative to Day 1
Description: as §1

CCC(OC)C(C)C1OC1CC(C)(O)/C=C/C=C(\C)C1OC(=O)CC(O)CCC(C)(O)C(OC(=O)N2CCN(C)CC2)/C=C/C1C (stereo not shown) [Compound 131, (8E,12E,14E)-3,6,16-Trihydroxy-21-methoxy-6,10,12,16,20-pentamethyl-7-((4-methylpiperazin-1-yl)carbonyl)oxy-18,19-epoxytricosa-8,12,14-trien-11-olide]
Peak area (mAU × sec) after 24 hours [1]: 157 mAU × sec
The residual ratios (%) [1]: 93.2%
Peak area (mAU × sec) initial [1]: 168 mAU × sec
IC50 [2]: 0.7 nM
IC50 (VEGF promoter): 1.7 nM
response vs control in vivo at 2.5 mg/kg [3]: 28%
the minimum relative weight ratios ([4]; Dose 2.5 mg/kg): 0.83

CCC(O)C(C)C1OC1CC(C)(O)/C=C/C=C(\C)C1OC(=O)CC(O)CCC(C)(O)C(OC(=O)N2CCCN(C)CC2)/C=C/C1C (stereo not shown) [Compound 9, (8E,12E,14E)-3,6,16,21-Tetrahydroxy-6,10,12,16,20-pentamethyl-7-((4-methylhomopiperazin-1-yl)carbonyl)oxy-18,19-epoxytricosa-8,12,14-trien-11-olide]
Peak area (mAU × sec) after 24 hours [1]: 5476 mAU × sec
The residual ratios (%) [1]: 96.2%
Peak area (mAU × sec) initial [1]: 5690 mAU × sec
IC50 [2]: 5.5 nM
IC50 (VEGF promoter): 12.9 nM
response vs control in vivo at 5 mg/kg [3]: 10%
the minimum relative weight ratios ([4]; Dose 5.0 mg/kg): 0.86

CCCCN1CCN(C(=O)OC2/C=C/C(C)C(/C(C)=C/C=C/C(C)(O)CC3OC3C(C)C(O)CC)OC(=O)CC(O)CCC2(C)O)CC1 (stereo not shown) [Compound 16, (8E,12E,14E)-7-((4-Butylpiperazin-1-yl)carbonyl)oxy-3,6,16,21-tetrahydroxy-6,10,12,16,20-pentamethyl-18,19-epoxytricosa-8,12,14-trien-11-olide]
IC50 [2]: 2 nM
IC50 (VEGF promoter): 3.1 nM
response vs control in vivo at 2.5 mg/kg [3]: 28%
the minimum relative weight ratios ([4]; Dose 2.5 mg/kg): 0.90

CCC(O)C(C)C1OC1CC(C)(O)/C=C/C=C(\C)C1OC(=O)CC(O)CCC(C)(OC)C(OC(=O)N2CCC(N3CCCCC3)CC2)/C=C/C1C (stereo not shown) [Compound 109, (8E,12E,14E)-3,16,21-Trihydroxy-6-methoxy-6,10,12,16,20-pentamethyl-7-((4-(piperidin-1-yl)piperidin-1-yl)carbonyl)oxy-18,19-epoxytricosa-8,12,14-trien-11-olide]
Peak area (mAU × sec) after 24 hours [1]: 2111 mAU × sec
The residual ratios (%) [1]: 94.9%
Peak area (mAU × sec) initial [1]: 2224 mAU × sec
IC50 [2]: 1.5 nM
IC50 (VEGF promoter): 3.3 nM
response vs control in vivo at 0.625 mg/kg [3]: 36%
the minimum relative weight ratios ([4]; Dose 0.625 mg/kg): 0.89

CCC(O)C(C)C1OC1CC(C)(O)/C=C/C=C(\C)C1OC(=O)CC(O)CCC(C)(O)C(OC(=O)N2CCN(C(C)C)CC2)/C=C/C1C (stereo not shown) [Compound 44, (8E,12E,14E)-3,6,16,21-Tetrahydroxy-7-((4-isopropylpiperazin-1-yl)carbonyl)oxy-6,10,12,16,20-pentamethyl-18,19-epoxytricosa-8,12,14-trien-11-olide]
Peak area (mAU × sec) after 24 hours [1]: 3820 mAU × sec
The residual ratios (%) [1]: 94.8%
Peak area (mAU × sec) initial [1]: 4031 mAU × sec
IC50 [2]: 2.1 nM
IC50 (VEGF promoter): 3.9 nM
response vs control in vivo at 5 mg/kg [3]: 19%
the minimum relative weight ratios ([4]; Dose 5.0 mg/kg): 0.89

CCC(O)C(C)C1OC1CC(C)(O)/C=C/C=C(\C)C1OC(=O)CC(O)CCC(C)(O)C(OC(=O)N2CCN(C3CCCCC3)CC2)/C=C/C1C (stereo not shown) [Compound 26, (8E,12E,14E)-7-((4-Cyclohexylpiperazin-1-yl)carbonyl)oxy-3,6,16,21-tetrahydroxy-6,10,12,16,20-pentamethyl-18,19-epoxytricosa-8,12,14-trien-11-olide]
IC50 [2]: 1.6 nM
IC50 (VEGF promoter): 2.8 nM
response vs control in vivo at 2.5 mg/kg [3]: 42%
the minimum relative weight ratios ([4]; Dose 2.5 mg/kg): 0.93

CCC(O)C(C)C1OC1CC(C)(O)/C=C/C=C(\C)C1OC(=O)CC(O)CCC(C)(O)C(OC(=O)N(C)CCN(C)C)/C=C/C1C (stereo not shown) [Compound 6, (8E,12E,14E)-7-(N-(2-(N′,N′-Dimethylamino)ethyl)-N-methylcarbamoyloxy)-3,6,16,21-tetrahydroxy-6,10,12,16,20-pentamethyl-18,19-epoxytricosa-8,12,14-trien-11-olide]
IC50 [2]: 12.5 nM
IC50 (VEGF promoter): 32 nM
response vs control in vivo at 1.25 mg/kg [3]: 35%
the minimum relative weight ratios ([4]; Dose 1.25 mg/kg): 0.81

CCC(O)C(C)C1OC1CC(C)(O)/C=C/C=C(\C)C1OC(=O)CC(O)CCC(C)(O)C(OC(=O)N(C)CCN(CC)CC)/C=C/C1C (stereo not shown) [Compound 75, (8E,12E,14E)-7-(N-(2-(N′,N′-Diethylamino)ethyl)-N-methylcarbamoyloxy)-3,6,16,21-tetrahydroxy-6,10,12,16,20-pentamethyl-18,19-epoxytricosa-8,12,14-trien-11-olide]
Peak area (mAU × sec) after 24 hours [1]: 2478 mAU × sec
The residual ratios (%) [1]: 95.5%
Peak area (mAU × sec) initial [1]: 2594 mAU × sec
IC50 [2]: 4.1 nM
IC50 (VEGF promoter): 9.1 nM
response vs control in vivo at 5 mg/kg [3]: 17%
the minimum relative weight ratios ([4]; Dose 5.0 mg/kg): 0.82

CCC(O)C(C)C1OC1CC(C)(O)/C=C/C=C(\C)C1OC(=O)CC(O)CCC(C)(O)C(OC(=O)N2CCC(N3CCCCC3)CC2)/C=C/C1C (stereo not shown) [Compound 22, (8E,12E,14E)-3,6,16,21-Tetrahydroxy-6,10,12,16,20-pentamethyl-7-((4-(piperidin-1-yl)piperidin-1-yl)carbonyl)oxy-18,19-epoxytricosa-8,12,14-trien-11-olide]
Peak area (mAU × sec) after 24 hours [1]: 4514 mAU × sec
The residual ratios (%) [1]: 95.8%
Peak area (mAU × sec) initial [1]: 4713 mAU × sec
IC50 [2]: 14.6 nM
IC50 (VEGF promoter): 25.6 nM
response vs control in vivo at 5 mg/kg [3]: 39%
the minimum relative weight ratios ([4]; Dose 5.0 mg/kg): 0.74

CCC(O)C(C)C1OC1CC(C)(O)/C=C/C=C(\C)C1OC(=O)CC(O)CCC(C)(O)C(OC(=O)N2CCN(CC)CC2)/C=C/C1C (stereo not shown) [Compound 21, (8E,12E,14E)-7-((4-Ethylpiperazin-1-yl)carbonyl)oxy-3,6,16,21-tetrahydroxy-6,10,12,16,20-pentamethyl-18,19-epoxytricosa-8,12,14-trien-11-olide]
IC50 [2]: 3.2 nM
IC50 (VEGF promoter): 6.1 nM
response vs control in vivo at 2.5 mg/kg [3]: 28%
the minimum relative weight ratios ([4]; Dose 2.5 mg/kg): 0.80
